pIC50: −log10 of the molar value.
Legend:
Assay type in all cases: biochemical
PI3Kα = target: T1, PI3Kα (Homo sapiens, UniProt P42336); experiment: PI3K KinaseGlo assay, PI3Kalpha; conditions: 10 nM enzyme, 1 μM ATP, 30 mins
T1 construct: His tag (C); made in house; host or cells: Tn5 insect cells, baculovirus BV-1075

PI3Kβ = target: T2, PI3Kβ (Homo sapiens, UniProt P42338); experiment: PI3K KinaseGlo assay, PI3Kbeta; conditions: 25 nM enzyme, 1 μM ATP, 30 mins
T2 construct: His tag (C); made in house; host or cells: Tn5 insect cells, baculovirus BV949 (vector LR280)
T2 sequence (P42338 with tags, fused parts or gaps): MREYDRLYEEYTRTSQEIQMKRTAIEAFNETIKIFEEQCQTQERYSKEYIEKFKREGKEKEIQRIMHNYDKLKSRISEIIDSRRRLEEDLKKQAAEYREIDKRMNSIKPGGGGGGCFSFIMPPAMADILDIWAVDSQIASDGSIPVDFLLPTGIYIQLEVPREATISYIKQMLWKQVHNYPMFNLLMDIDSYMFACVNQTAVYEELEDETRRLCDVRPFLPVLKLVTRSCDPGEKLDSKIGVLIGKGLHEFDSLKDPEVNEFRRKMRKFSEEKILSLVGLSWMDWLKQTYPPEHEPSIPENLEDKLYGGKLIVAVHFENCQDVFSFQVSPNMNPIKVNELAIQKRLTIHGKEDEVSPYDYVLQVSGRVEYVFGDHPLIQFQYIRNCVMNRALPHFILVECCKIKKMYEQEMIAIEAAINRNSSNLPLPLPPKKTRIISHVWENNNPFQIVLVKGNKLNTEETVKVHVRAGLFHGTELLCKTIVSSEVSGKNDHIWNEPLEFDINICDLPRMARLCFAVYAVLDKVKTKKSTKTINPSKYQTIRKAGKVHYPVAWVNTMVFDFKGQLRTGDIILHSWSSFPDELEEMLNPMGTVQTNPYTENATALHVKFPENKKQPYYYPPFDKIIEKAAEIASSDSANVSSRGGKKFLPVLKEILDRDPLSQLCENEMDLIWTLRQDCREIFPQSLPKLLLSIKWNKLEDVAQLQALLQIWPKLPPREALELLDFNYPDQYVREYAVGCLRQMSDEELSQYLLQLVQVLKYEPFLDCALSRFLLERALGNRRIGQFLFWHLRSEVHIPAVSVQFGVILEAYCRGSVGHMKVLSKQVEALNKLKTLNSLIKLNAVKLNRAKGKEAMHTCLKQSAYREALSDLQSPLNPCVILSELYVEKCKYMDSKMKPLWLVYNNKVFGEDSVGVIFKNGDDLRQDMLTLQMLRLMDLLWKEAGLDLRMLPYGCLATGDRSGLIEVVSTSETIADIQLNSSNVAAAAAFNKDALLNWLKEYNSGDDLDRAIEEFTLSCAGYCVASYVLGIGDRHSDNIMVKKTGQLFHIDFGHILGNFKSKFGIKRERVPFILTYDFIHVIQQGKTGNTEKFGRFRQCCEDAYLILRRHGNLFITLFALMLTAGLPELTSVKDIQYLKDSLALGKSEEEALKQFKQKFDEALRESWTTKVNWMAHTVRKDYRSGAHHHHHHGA

PI3Kγ = target: T3, PI3Kγ (Homo sapiens, UniProt P48736, Q459R); experiment: PI3K KinaseGlo assay, PI3Kgamma; conditions: 150 nM enzyme, 1 μM ATP, 90 mins
T3 construct: Constructs lacking the N-terminal 144 aa; His tag (C); made in house; host or cells: Tn5 insect cells, baculovirus BV950; construct from the Roger Williams lab (MRC LMB)
T3 sequence (P48736 with tags, fused parts or gaps Q459R): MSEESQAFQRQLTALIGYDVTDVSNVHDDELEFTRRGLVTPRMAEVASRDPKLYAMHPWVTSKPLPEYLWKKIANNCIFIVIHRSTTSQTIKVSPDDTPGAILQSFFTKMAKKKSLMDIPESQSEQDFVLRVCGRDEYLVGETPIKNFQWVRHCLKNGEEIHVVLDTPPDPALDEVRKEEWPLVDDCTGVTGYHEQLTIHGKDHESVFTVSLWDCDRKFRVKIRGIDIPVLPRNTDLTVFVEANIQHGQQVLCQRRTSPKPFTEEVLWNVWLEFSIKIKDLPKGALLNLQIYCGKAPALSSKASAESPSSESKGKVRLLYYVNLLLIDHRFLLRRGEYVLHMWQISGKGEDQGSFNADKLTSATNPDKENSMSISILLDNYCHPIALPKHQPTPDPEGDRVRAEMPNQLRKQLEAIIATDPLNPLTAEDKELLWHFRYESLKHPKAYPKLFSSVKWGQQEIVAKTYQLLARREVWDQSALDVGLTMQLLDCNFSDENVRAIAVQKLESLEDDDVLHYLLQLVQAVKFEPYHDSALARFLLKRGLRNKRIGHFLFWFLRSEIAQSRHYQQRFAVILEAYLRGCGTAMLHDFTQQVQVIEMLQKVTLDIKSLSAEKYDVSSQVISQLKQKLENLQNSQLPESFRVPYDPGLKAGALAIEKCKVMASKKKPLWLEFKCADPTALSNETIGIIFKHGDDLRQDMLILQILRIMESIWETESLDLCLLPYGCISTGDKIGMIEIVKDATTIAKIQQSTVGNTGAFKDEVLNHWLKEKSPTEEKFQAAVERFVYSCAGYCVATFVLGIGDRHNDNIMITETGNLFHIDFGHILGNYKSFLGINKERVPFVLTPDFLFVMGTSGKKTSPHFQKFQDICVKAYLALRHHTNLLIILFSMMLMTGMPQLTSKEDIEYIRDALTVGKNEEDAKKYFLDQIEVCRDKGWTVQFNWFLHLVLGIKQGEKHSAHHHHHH

PI3Kδ = target: T4, PI3Kδ (Homo sapiens, UniProt O00329); experiment: PI3K KinaseGlo assay, PI3Kdelta; conditions: 10 nM enzyme, 1 μM ATP, 30 mins
T4 construct: His tag (C); made in house; host or cells: Tn5 insect cells, baculovirus BV1060 (vector LR415)
T4 sequence (O00329 with tags, fused parts or gaps): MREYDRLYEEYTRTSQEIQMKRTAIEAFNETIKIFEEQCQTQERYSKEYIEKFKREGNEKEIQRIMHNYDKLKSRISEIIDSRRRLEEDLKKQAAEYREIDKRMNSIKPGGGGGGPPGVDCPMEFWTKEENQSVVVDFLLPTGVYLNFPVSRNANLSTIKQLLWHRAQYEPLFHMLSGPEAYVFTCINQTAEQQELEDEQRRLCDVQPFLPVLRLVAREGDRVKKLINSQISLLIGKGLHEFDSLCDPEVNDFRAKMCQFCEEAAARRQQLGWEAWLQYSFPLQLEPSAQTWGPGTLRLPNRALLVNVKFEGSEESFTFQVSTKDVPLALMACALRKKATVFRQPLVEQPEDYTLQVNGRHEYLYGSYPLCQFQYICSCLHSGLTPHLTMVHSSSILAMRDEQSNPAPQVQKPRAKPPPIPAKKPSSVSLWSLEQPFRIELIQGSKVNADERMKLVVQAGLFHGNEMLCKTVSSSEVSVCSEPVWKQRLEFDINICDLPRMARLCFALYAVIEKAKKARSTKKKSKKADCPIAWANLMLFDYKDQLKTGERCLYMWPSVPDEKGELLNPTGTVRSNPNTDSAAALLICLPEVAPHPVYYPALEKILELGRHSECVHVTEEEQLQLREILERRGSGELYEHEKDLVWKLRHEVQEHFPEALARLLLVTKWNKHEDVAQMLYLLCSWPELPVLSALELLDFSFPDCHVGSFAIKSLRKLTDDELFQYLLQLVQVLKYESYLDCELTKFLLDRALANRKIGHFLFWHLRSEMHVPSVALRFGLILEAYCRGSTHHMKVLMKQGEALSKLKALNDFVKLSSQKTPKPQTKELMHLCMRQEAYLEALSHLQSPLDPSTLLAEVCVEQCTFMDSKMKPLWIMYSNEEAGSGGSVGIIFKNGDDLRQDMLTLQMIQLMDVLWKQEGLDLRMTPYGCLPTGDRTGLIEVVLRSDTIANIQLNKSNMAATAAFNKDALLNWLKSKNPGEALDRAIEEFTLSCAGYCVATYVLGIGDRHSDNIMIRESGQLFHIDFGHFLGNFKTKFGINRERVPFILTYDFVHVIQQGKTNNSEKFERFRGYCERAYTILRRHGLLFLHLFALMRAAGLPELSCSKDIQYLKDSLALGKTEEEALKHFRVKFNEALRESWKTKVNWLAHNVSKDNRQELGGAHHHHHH

T1 sequence (P42336 with tags, fused parts or gaps): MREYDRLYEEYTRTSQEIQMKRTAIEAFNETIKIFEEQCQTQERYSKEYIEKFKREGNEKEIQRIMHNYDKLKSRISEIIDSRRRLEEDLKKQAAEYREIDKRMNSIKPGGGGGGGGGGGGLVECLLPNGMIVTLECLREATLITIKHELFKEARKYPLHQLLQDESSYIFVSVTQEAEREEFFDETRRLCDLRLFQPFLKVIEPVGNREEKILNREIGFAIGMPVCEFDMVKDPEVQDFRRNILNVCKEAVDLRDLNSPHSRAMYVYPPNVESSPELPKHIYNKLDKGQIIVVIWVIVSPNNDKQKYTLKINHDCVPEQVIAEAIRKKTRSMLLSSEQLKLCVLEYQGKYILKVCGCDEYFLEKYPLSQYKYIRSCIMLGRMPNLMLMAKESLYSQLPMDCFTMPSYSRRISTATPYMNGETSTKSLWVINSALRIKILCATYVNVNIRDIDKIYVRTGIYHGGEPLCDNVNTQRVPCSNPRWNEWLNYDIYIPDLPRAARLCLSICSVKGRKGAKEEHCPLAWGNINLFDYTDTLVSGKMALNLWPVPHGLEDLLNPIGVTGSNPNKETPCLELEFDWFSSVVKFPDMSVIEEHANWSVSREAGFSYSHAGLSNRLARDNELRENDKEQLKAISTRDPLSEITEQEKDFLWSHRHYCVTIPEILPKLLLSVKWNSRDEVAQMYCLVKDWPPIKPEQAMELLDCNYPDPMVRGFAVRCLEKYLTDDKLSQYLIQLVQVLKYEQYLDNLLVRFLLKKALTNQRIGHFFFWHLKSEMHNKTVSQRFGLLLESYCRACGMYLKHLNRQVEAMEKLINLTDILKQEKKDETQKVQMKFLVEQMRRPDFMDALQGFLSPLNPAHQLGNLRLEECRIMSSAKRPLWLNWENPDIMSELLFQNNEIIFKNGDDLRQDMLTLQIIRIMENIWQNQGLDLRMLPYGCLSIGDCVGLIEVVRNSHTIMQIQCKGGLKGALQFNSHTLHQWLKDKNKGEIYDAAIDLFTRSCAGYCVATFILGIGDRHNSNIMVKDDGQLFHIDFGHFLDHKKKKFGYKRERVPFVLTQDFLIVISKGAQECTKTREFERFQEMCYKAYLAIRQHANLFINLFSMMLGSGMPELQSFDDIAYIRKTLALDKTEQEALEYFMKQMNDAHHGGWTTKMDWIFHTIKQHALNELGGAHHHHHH

pIC50 (PI3Kα) | pIC50 (PI3Kβ) | pIC50 (PI3Kγ) | pIC50 (PI3Kδ) | Compound
8.26 | 6.48 | 7.05 | 7.52 | CCN(CC)c1ncc2c(n1)-c1sc(NC(=O)N3CC[C@H](C)[C@H]3C(N)=O)nc1CC2 [Example 2, (2S,3S)-3-Methyl-pyrrolidine-1,2-dicarboxylic acid 2-amide 1-[(8-diethylamino-4,5-dihydro-thiazolo[4,5-h]quinazolin-2-yl)-amide]]
8.15 | 6.87 | 7.01 | 7.62 | CC(C)(C)c1ncc2c(n1)-c1sc(NC(=O)N3CCC3C(N)=O)nc1CC2 (stereo not shown) [Example 24, Azetidine-1,2-dicarboxylic acid 2-amide 1-[(8-tert-butyl-4,5-dihydro-thiazolo[4,5-h]quinazolin-2-yl)-amide]]
8.07 | 7.06 | 6.85 | 7.14 | CC(C)(C)c1ncc2c(n1)-c1sc(NC(=O)N3CCC[C@@]3(CO)C(N)=O)nc1CC2 [Example 9, (R)-2-Hydroxymethyl-pyrrolidine-1,2-dicarboxylic acid 2-amide 1-[(8-tert-butyl-4,5-dihydro-thiazolo[4,5-h]quinazolin-2-yl)-amide]]
7.29 | 5.23 | 5.91 | 5.71 | CN(C)[C@@H]1C[C@@H](C(N)=O)N(C(=O)Nc2nc3c(s2)-c2nc(C(C)(C)C)sc2CC3)C1 [Example 31, (2S,4R)-4-Dimethylamino-pyrrolidine-1,2-dicarboxylic acid 2-amide 1-[(7-tert-butyl-4,5-dihydro-benzo[1,2-d;3,4-d′]bisthiazol-2-yl)-amide]]
7.64 | 5.67 | 6.92 | 6.53 | CC(C)(C)c1nc2c(s1)CCc1nc(NC(=O)N3CC[C@H]3C(N)=O)sc1-2 [Example 30, (S)-Azetidine-1,2-dicarboxylic acid 2-amide 1-[(7-tert-butyl-4,5-dihydro-benzo[1,2-d;3,4-d′]bisthiazol-2-yl)-amide]]
8.52 | 5.21 | – | 5.79 | CN(C)C[C@@H]1CCN(C(=O)Nc2nc3c(s2)-c2cc(C(C)(C)C)ncc2OC3)[C@@H]1C(N)=O [Example 47, (2S,3S)-3-Dimethylaminomethyl-pyrrolidine-1,2-dicarboxylic acid 2-amide 1-[(8-tert-butyl-4H-5-oxa-1-thia-3,7-diaza-cyclopenta[a]naphthalen-2-yl)-amide]]
8.19 | 6.84 | 6.75 | 6.66 | CCN(CC)c1ncc2c(n1)-c1sc(NC(=O)N3CCC[C@@]3(C)C(N)=O)nc1CC2 [Example 4, (S)-2-Methyl-pyrrolidine-1,2-dicarboxylic acid 2-amide 1-[(8-diethylamino-4,5-dihydro-thiazolo[4,5-h]quinazolin-2-yl)-amide]]
8.26 | 6.46 | 6.91 | 7.35 | CC(C)(C)c1ncc2c(n1)-c1sc(NC(=O)N3CC[C@H]3C(N)=O)nc1CC2 [Example 25, (S)-Azetidine-1,2-dicarboxylic acid 2-amide 1-[(8-tert-butyl-4,5-dihydro-thiazolo[4,5-h]quinazolin-2-yl)-amide]]
8.22 | 6.04 | – | 7.72 | C[C@@H]1CCN(C(=O)Nc2nc3c(s2)-c2cc(C(C)(C)C(F)(F)F)ncc2OC3)[C@@H]1C(N)=O [Example 48, (2S,3R)-3-Methyl-pyrrolidine-1,2-dicarboxylic acid 2-amide 1-{[8-(2,2,2-trifluoro-1,1-dimethyl-ethyl)-4H-5-oxa-1-thia-3,7-diaza-cyclopenta[a]naphthalen-2-yl]-amide}]
8.22 | 6.29 | 6.64 | 7.28 | CCN(CC)c1ncc2c(n1)-c1sc(NC(=O)N3CCC[C@H]3C(N)=O)nc1CC2 [Example 12, (S)-Pyrrolidine-1,2-dicarboxylic acid 2-amide 1-[(8-diethylamino-4,5-dihydro-thiazolo[4,5-h]quinazolin-2-yl)-amide]]
> 8.52 | 6.28 | 6.63 | 7.44 | CCN(CC)c1ncc2c(n1)-c1sc(NC(=O)N3CC[C@@H](C)[C@H]3C(N)=O)nc1CC2 [Example 21, (2S,3R)-3-Methyl-pyrrolidine-1,2-dicarboxylic acid 2-amide 1-[(8-diethylamino-4,5-dihydro-thiazolo[4,5-h]quinazolin-2-yl)-amide]]
7.63 | 5.16 | 6.58 | 5.72 | CCN(CC)c1ncc2c(n1)-c1sc(NC(=O)N3C[C@@H](N(C)C)C[C@H]3C(N)=O)nc1CC2 [Example 22, (2S,4S)-4-Dimethylamino-pyrrolidine-1,2-dicarboxylic acid 2-amide 1-[(8-diethylamino-4,5-dihydro-thiazolo[4,5-h]quinazolin-2-yl)-amide]]
8.15 | 5.96 | 6.88 | 7.37 | CC(C)(CF)c1nc2c(s1)CCc1nc(NC(=O)N3CCC[C@H]3C(N)=O)sc1-2 [Example 32, (S)-Pyrrolidine-1,2-dicarboxylic acid 2-amide 1-{[7-(2-fluoro-1,1-dimethyl-ethyl)-4,5-dihydro-benzo[1,2-d;3,4-d′]bisthiazol-2-yl]-amide}]
8.40 | 6.74 | – | 7.72 | CC(C)(C)c1ncc2c(n1)-c1sc(NC(=O)N3CC[C@@H](CN4CCOCC4)[C@H]3C(N)=O)nc1CC2 [Example 37, (2S,3S)-3-Morpholin-4-ylmethyl-pyrrolidine-1,2-dicarboxylic acid 2-amide 1-[(8-tert-butyl-4,5-dihydro-thiazolo[4,5-h]quinazolin-2-yl)-amide]]
8.19 | 6.48 | 6.86 | 7.24 | CCN(CC)c1ncc2c(n1)-c1sc(NC(=O)N3C[C@@H](O)C[C@H]3C(N)=O)nc1CC2 [Example 26, (2S,4S)-4-Hydroxy-pyrrolidine-1,2-dicarboxylic acid 2-amide 1-[(8-diethylamino-4,5-dihydro-thiazolo[4,5-h]quinazolin-2-yl)-amide]]
7.62 | 5.52 | – | 6.30 | CC(C)(C)c1nc2c(s1)CCc1nc(NC(=O)N3CC[C@@H](CN4CCOCC4)[C@H]3C(N)=O)sc1-2 [Example 41, (2S,3S)-3-Morpholin-4-ylmethyl-pyrrolidine-1,2-dicarboxylic acid 2-amide 1-[(7-tert-butyl-4,5-dihydro-benzo[1,2-d;3,4-d′]bisthiazol-2-yl)-amide]]
7.92 | 6.29 | – | 7.40 | CC(=O)NC[C@@H]1CCN(C(=O)Nc2nc3c(s2)-c2nc(C(C)(C)C)ncc2CC3)[C@@H]1C(N)=O [Example 36, (2S,3S)-3-(Acetylamino-methyl)-pyrrolidine-1,2-dicarboxylic acid 2-amide 1-[(8-tert-butyl-4,5-dihydro-thiazolo[4,5-h]quinazolin-2-yl)-amide]]
8.05 | 6.06 | – | 7.36 | CC(C)(C)c1ncc2c(n1)-c1sc(NC(=O)N3CC[C@@H](O)[C@H]3C(N)=O)nc1CC2 [Example 38, (2S,3R)-3-Hydroxy-pyrrolidine-1,2-dicarboxylic acid 2-amide 1-[(8-tert-butyl-4,5-dihydro-thiazolo[4,5-h]quinazolin-2-yl)-amide]]
8.05 | 6.26 | – | 6.95 | COC[C@@H]1CCN(C(=O)Nc2nc3c(s2)-c2nc(C(C)(C)C(F)(F)F)sc2CC3)[C@@H]1C(N)=O [Example 50, (2S,3R)-3-Methoxymethyl-pyrrolidine-1,2-dicarboxylic acid 2-amide 1-{[7-(2,2,2-trifluoro-1,1-dimethyl-ethyl)-4,5-dihydro-benzo[1,2-d;3,4-d′]bisthiazol-2-yl]-amide}]
8.10 | 6.39 | – | 7.49 | COC[C@@H]1CCN(C(=O)Nc2nc3c(s2)-c2nc(C(C)(C)C)ncc2CC3)[C@@H]1C(N)=O [Example 42, (2S,3R)-3-Methoxymethyl-pyrrolidine-1,2-dicarboxylic acid 2-amide 1-[(8-tert-butyl-4,5-dihydro-thiazolo[4,5-h]quinazolin-2-yl)-amide]]
8.19 | 7.21 | – | 7.62 | COC[C@@H]1CCN(C(=O)Nc2nc3c(s2)-c2nc(C(C)(C)C(F)(F)F)ncc2CC3)[C@@H]1C(N)=O [Example 45, (2S,3R)-3-Methoxymethyl-pyrrolidine-1,2-dicarboxylic acid 2-amide 1-{[8-(2,2,2-trifluoro-1,1-dimethyl-ethyl)-4,5-dihydro-thiazolo[4,5-h]quinazolin-2-yl]-amide}]
8.26 | 5.94 | – | 6.80 | C[C@@H]1CCN(C(=O)Nc2nc3c(s2)-c2cc(C(C)(C)C)ncc2OC3)[C@@H]1C(N)=O [Example 46, (2S,3R)-3-Methyl-pyrrolidine-1,2-dicarboxylic acid 2-amide 1-[(8-tert-butyl-4H-5-oxa-1-thia-3,7-diaza-cyclopenta[a]naphthalen-2-yl)-amide]]

Compound | pIC50 (PI3Kα) | pIC50 (PI3Kβ) | pIC50 (PI3Kγ) | pIC50 (PI3Kδ)
(R)-2-Benzyl-pyrrolidine-1,2-dicarboxylic acid 2-amide 1-[(8-diethylamino-4,5-dihydro-thiazolo[4,5-h]quinazolin-2-yl)-amide] [Example 3] | 7.35 | 6.90 | 5.80 | 6.13

From US8357707B2, “2-carboxamide cycloamino ureas” (Novartis AG, priority 2009, dated 2013)
